“Also recorded” adds a separate entry of the source.
Experiments:
[1] = biological target: Bromelain-cleaved HA (BHA) (Influenza A virus (H1N1), UniProt Q0HD60); assay type: biochemical
influenza virus [2] = assay type: cell-based; settings: for reduction of virus yield: 3.16 µM, 48 hours, MDCK, TCID50
[3] = biological target: hemagglutinin of influenza virus (Influenza A virus (H1N1), UniProt Q0HD60); assay type: cell-based; settings: for effect on hemolysis (negative controls): data not shown
[4] = Repeated oral dosing of mice without virus challenge (survival, body weight); assay type: in vivo; settings: 200 mg/kg and 50 mg/kg orally twice a day for 7 days, monitored 14 days
Description: Survival of the treated animals and body weight were monitored for 14 days starting from the first day of compound dosing.

[5] = test system: Influenza A/PR/8/34 (H1N1); experiment: microbe, parasite or virus in culture; assay type: cell-based; settings: MDCK, 72 h, read-out: CPE (EC50) A/PR/8/34 (H1N1)
[6] = test system: Influenza A/Mal/302/54 (H1N1); experiment: microbe, parasite or virus in culture; assay type: cell-based; settings: H1N1, MDCK, 72 h, read-out: CPE (EC50) A/Mal/302/54 (H1N1)
[7] = test system: Influenza A/New Jersey/8/76 (H1N1); experiment: microbe, parasite or virus in culture; assay type: cell-based; settings: H1N1, MDCK, 72 h, read-out: CPE (EC50) A/New Jersey/8/76 (H1N1)
[8] = mouse, in vivo
[9] = test system: Influenza A/Hongkong/8/68 (H3N2); experiment: microbe, parasite or virus in culture; assay type: cell-based, Influenza A virus; settings: for EC50: Influenza A virus, H3N2, MDCK, 72 h, read-out: CPE (EC50) A/Hongkong/8/68 (H3N2)
influenza virus [10] = experiment: microbe, parasite or virus in culture; assay type: cell-based; settings: unidentified influenza virus, read-out: in vitro EC90
in vivo = settings: male, CD-1, mouse
[11] = test system: Influenza A/Human/Hubei/3/2005 (H3N2); experiment: microbe, parasite or virus in culture; assay type: cell-based, Influenza A virus; settings: for EC50: Influenza A virus, H3N2, MDCK, 72 h, read-out: CPE (EC50) A/Human/Hubei/3/2005 (H3N2)
[12] = test system: Influenza A/Weiss/43 (H1N1); assay type: cell-based, Influenza A virus
[13] = test system: Influenza A/Weiss/43 (H1N1); assay type: cell-based, Influenza A virus; remark: listed apart in the source
[14] = test system: viral hemagglutinin binding to sialic acid receptors of chicken erythrocytes; assay type: cell-based, influenza virus; settings: 10 µM, regardless of viral dilution; data not shown

Bromelain-cleaved HA (BHA), sequence (Q0HD60 18-343, added parts left off): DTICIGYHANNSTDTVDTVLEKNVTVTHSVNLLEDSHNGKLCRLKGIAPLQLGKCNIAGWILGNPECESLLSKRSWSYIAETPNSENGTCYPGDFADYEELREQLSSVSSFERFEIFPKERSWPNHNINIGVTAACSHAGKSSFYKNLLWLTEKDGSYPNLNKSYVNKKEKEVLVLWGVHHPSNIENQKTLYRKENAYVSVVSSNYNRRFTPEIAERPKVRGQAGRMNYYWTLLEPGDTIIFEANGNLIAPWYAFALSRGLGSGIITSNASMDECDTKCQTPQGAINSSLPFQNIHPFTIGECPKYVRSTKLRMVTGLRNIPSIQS
hemagglutinin of influenza virus, sequence (Q0HD60 18-343, added parts left off): as above

| Compound | protection of BHA from trypsin digestion after acidification [1] | dynamics of progeny virus production (influenza virus [2]) | effect on hemolysis (negative controls) [3] | EC50 [5] [nM] | EC50 [6] [nM] | BHA trypsin sensitivity [1] | EC50 [9] [nM] | EC50 [11] [nM] | reduction of virus yield (influenza virus [2]) [log] | further results |
| --- | --- | --- | --- | --- | --- | --- | --- | --- | --- | --- |
| NC(=O)c1ncn([C@@H]2O[C@H](CO)[C@@H](O)[C@H]2O)n1 [Ribavirin] | failed to show a protective effect on BHA | became weaker | did not show any effect on hemolysis | – | – | – | – | – | – | inhibition of progeny virus production (influenza virus [2]): strongly inhibited progeny virus production |
| CC1(C)C[C@H](O)C[C@](C)(CNc2ccc(Cl)c(S(N)(=O)=O)c2)C1 [RO5487624] | completely protected HA from trypsin digestion | – | – | 210 | 450 | + | > 100000 | > 100000 | – | animal death and body weight changes [4]: did not find any animal death and statistically significant body weight changes; EC50 [7]: 90 nM; C max and AUC in plasma versus oral dose [8]: increased in a dose-dependent manner; EC90 (influenza virus [10]): 300 nM; bioavailability (in vivo): > 70%; AUC(0-inf) (in vivo; iv, 2 mg/kg): 629 ng·h/mL; AUC(0-t) (in vivo; iv, 2 mg/kg): 587 ng·h/mL |
| CC1(C)CC(O)CC(C)(CNc2cccc(S(N)(=O)=O)c2)C1 (stereo not shown) [RO5464466, 3-[(5-Hydroxy-1,3,3-trimethyl-cyclohexylmethyl)-amino]-benzenesulfonamide] | completely protected HA from trypsin digestion | strong inhibition at all time points | – | 580 | 660 | + | > 100000 | > 100000 | 8 | protection of BHA from trypsin-caused degradation at different pH [1]: effectively protected BHA from trypsin-caused degradation throughout the tested pH values, except pH 4.5; inhibitory effect on replication of A/Hongkong/8/68 (H3N2) in CPE assay [9]: failed to exhibit an apparent inhibitory effect; effect on virus replication in one cycle [12]: completely blocks virus replication; HA-mediated hemolysis ([3]; 10 µM, pH 5.03, 5.05, 5.1 and 5.2): completely blocked; plaque formation [13]: completely protected cell monolayer against cell death (no visible plaques); also recorded: still inhibited virus infection; inhibitory effect on replication of A/Human/Hubei/3/2005 (H3N2) in CPE assay [11]: failed to exhibit an apparent inhibitory effect; inhibitory effect on hemagglutination [14]: did not have an inhibitory effect on hemagglutination |
| CCOC(=O)C1=C[C@@H](OC(CC)CC)[C@H](NC(C)=O)[C@@H](N)C1 [Oseltamivir] | – | – | did not show any effect on hemolysis | – | – | – | – | – | 5 | – |
